Laboratory results: paper PMC10487437 (International Journal of Molecular Sciences, 2023)
Primed or numbered codes have the meaning given here. * marks the point of attachment. Dabcyl′ = CN(C)c1ccc(/N=N/c2ccc(C(=O)*)cc2)cc1; EDANS = O=S(=O)(O)c1cccc2c(NCCN*)cccc12

Experiments:
[1] = target: 20S proteasome (mouse (endogenous in brain)) (UniProt Q60692)
[2] = target: 26S proteasome (mouse (endogenous in brain)) (UniProt Q60692)
[3] = test system: 26S proteasome from murine brain; assay: Specific peptidase activity of 26S proteasome with additives (Table S1)
[4] = test system: T1, 20S proteasome from murine brain; assay: Specific peptidase activity of 20S proteasome with additives (Table S1); format: biochemical, mouse; conditions: for Specific peptidase activity using Suc-LLVY-AMC: 20S plus additive: 0.5 µM Bortezomib, 0.1 µM MG132, 0.02% SDS or 11S (1:2, mole:mole), 20S alone 2.37 ± 0.13
T1 construct: from tissue; host or cells: mouse brain
Excerpt: Characterization of puriﬁed proteasomes
teasomes. […] To conﬁrm that
cathepsin B [48] (Table S1).
reaction mixture for both 20S and 26S.
Table S1. Peptidase activity of the samples of 20S and 26S proteasome from murine brain.
The molar ratio between the proteasome

20S proteasome [5] = test system: T2, 20S proteasome; assay: Determination of proteolysis sites of oligoglutamine peptides by LC-MS; format: biochemical, mouse; conditions: for Products of proteasomal hydrolysis identified: LC-MS, identical for all proteasome complexes (20S, 20S+11S, 26S, 26S+11S); for Peak of the starting substrate after incubation with 20S proteasome: incubation for 48 h, UPLC C18, UV-VIS and MS detection
T2 construct: from tissue; host or cells: mouse brain
Method: Next, we determined proteolysis sites for our oligoglutamine-containing peptides using liquid chromatography-mass spectrometry (LC-MS). The chromatogram of the Dabcyl-KQ5GD-EDANS solution in DMSO (Figure 3a) has a peak at the retention time of 1.69 min. According to the mass spectrum (Figure 3b), this peak corresponds to the Dabcyl-KQ5GD-EDANS (M = 1458.69 g/mole; z = 2; m/z = 729) molecule. Another fragment with m/z = 252 corresponds to the Dabcyl- (C15H14N3O), and the one with m/z = 380 corresponds to the DabcylK- (C21H26N5O2) fragment. These peaks are likely to arise due to fragmentation in a mass spectrometer since, upon hydrolysis, the masses of these fragments would be 269 and 397, respectively. After the incubation with proteasome for 48 h, the peak at 1.69 min disappeared (Figure 3c), and two other peaks appeared with retention times equal to 1.45 and 1.72 min. These peaks were assigned to the N- and C-ends of the peptide on the basis of the difference in the absorption spectra of the Dabcyl and EDANS moieties. […] Other products were not detected either at short (15 min) or longer hydrolysis times (72 h).
Next, we identified cleavage sites for the substrate with a longer oligoglutamine fragment (Figure 4). The peak with a retention time of 1.06 min (Figure 4a) that corresponds to the Dabcyl-KQ10PPD-EDANS (M = 2236.38 g/mole; z = 2; m/z = 1118) molecule (Figure 4b) disappeared after the substrate was incubated with the 20S proteasome for 48 h. Instead, two other peaks appeared, at 1.14 and 1.37 min (Figure 4c). According to UV spectra for both peaks, the fragment at 1.14 min had Dabcyl chromophore, and the second fragment carried EDANS fluorophore. Finally, according to mass calculation, the first product was attributed to the Dabcyl-KQ2 fragment (Figure 4d) and the second one to the Q7PPD-EDANS moiety (Figure 4e).
Peptide samples were analyzed on an Acquity UPLC system (Waters, Milford, MA, USA) connected to a PDA detector and TQD mass spectrometer (Waters). […] The gradient program was as follows: from 5%B to 50%B per 3 min, from 50%B to 5%B per 0.1 min, at a flow rate of 0.5 mL/min and a temperature of 35 °C. Solvent A: 20 mM formic acid in acetonitrile/water (1:20)/Solvent B: 20 mM formic acid in acetonitrile. Instrument settings and measuring parameters TQD were as follows: capillary voltage 3.5 kV; cone voltage 25 V; source temperature 120 °C; desolvation temperature 450 °C; cone gas flow 50 L/h; desolvation gas flow 800 L/h; MS1 scanning mass from 50 to 1500 Da; positive polarity. The PDA detector range was 220–500 nm. The resulting raw data were analyzed using the MassLynx software (version 4.1 SCN919).

26S+11S = test system: T3, 26S+11S; assay: Apparent kinetic parameters of FRET substrate hydrolysis by 26S+11S complex; format: biochemical, mouse; conditions: for Km / Vmax·10^−2: apparent, 26S+11S, molar ratio 1:4, substrate 5 to 100 µM, 37 °C, means ± SEM of three independent experiments run in duplicate; for Km: Michaelis-Menten, fluorescence 340/490 nm, 1 h; for Vmax (+11S)/Vmax: ratio of Vmax by 26S+11S to Vmax by 26S, proteasome:11S 1:4
T3 construct: from tissue; host or cells: mouse brain

26S proteasome = test system: T4, 26S proteasome; assay: Apparent kinetic parameters of FRET substrate hydrolysis by 26S proteasome; format: biochemical, mouse; conditions: substrate 5 to 100 µM, 37 °C, means ± SEM of three independent experiments run in duplicate; for Km: Michaelis-Menten, fluorescence 340/490 nm, 1 h
T4 construct: from tissue; host or cells: mouse brain

20S proteasome [6] = test system: T2, 20S proteasome; assay: Apparent kinetic parameters of FRET substrate hydrolysis by 20S proteasome; format: biochemical, mouse; conditions: substrate 5 to 100 µM, 37 °C, means ± SEM of three independent experiments run in duplicate; for Km: Michaelis-Menten, fluorescence 340/490 nm, 1 h
20S+11S = test system: T5, 20S+11S; assay: Apparent kinetic parameters of FRET substrate hydrolysis by 20S+11S complex; format: biochemical, mouse; conditions: for Km / Vmax·10^−2: apparent, 20S+11S, molar ratio 1:4, substrate 5 to 100 µM, 37 °C, means ± SEM of three independent experiments run in duplicate; for Km: Michaelis-Menten, fluorescence 340/490 nm, 1 h; for Vmax (+11S)/Vmax: ratio of Vmax by 20S+11S to Vmax by 20S, proteasome:11S 1:4
T5 construct: from tissue; host or cells: mouse brain

[7] = means ± SEM of three independent experiments run in duplicate

11S regulator (PA28αβ), sequence (P97371 whole entry): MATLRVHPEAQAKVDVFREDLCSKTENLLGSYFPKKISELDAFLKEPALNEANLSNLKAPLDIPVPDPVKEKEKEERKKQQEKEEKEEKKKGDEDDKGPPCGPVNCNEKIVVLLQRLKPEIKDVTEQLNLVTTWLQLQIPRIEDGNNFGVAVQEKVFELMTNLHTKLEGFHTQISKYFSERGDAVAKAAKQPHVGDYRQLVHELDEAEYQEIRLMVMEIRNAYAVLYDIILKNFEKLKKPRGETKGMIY
11S regulator (PA28αβ), sequence (P97372 whole entry): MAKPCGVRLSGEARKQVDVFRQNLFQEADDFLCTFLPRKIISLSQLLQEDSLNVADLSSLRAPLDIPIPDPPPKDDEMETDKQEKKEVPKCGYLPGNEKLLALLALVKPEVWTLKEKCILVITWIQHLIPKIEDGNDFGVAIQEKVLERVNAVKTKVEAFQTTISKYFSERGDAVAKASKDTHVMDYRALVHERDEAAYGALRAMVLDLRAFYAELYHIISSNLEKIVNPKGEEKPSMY
26S proteasome (mouse (endogenous in brain)), sequence (Q60692 whole entry, looked up): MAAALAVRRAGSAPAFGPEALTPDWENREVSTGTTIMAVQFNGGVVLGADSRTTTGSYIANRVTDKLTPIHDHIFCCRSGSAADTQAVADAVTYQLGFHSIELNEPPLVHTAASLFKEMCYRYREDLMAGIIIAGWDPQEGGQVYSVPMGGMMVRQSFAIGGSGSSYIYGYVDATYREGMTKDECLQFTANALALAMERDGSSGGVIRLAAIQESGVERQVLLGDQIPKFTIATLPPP
20S proteasome (mouse (endogenous in brain)), sequence (Q60692 whole entry, looked up): as above

Molecule | Km (26S+11S) | Vmax·10^−2 (26S+11S) | Vmax (+11S)/Vmax (26S+11S) | Km (26S proteasome) | Vmax·10^−2 (26S proteasome) | Km (20S proteasome [6]) | Vmax·10^−2 (20S proteasome [6]) | Km (20S+11S) | Vmax·10^−2 (20S+11S) | Vmax (+11S)/Vmax (20S+11S) | apparent Km of hydrolysis by 20S+11S (proteasome:11S 1:4) [1] | apparent Km of hydrolysis by the 20S proteasome [1] | apparent Km of hydrolysis by 26S+11S (proteasome:11S 1:4) [2] | apparent Km of hydrolysis by the 26S proteasome [2] | other results
11S regulator (PA28αβ) (from UniProt P97371 1-249; P97372 1-239) (complex) |  |  |  |  |  |  |  |  |  |  |  |  |  |  | Vmax (+11S)/Vmax of hydrolysis of Dabcyl-KQ5GD-EDANS by the 20S proteasome, proteasome:11S 1:4 [1]: 2.7; Vmax (+11S)/Vmax of hydrolysis of Dabcyl-KQ10GD-EDANS by the 20S proteasome, proteasome:11S 1:4 [1]: 1.5; Vmax (+11S)/Vmax of hydrolysis of Dabcyl-KQ10PPD-EDANS by the 20S proteasome, proteasome:11S 1:4 [1]: 2.3; Vmax (+11S)/Vmax of hydrolysis of Dabcyl-KQ5GD-EDANS by the 26S proteasome, proteasome:11S 1:4 [2]: 1; Vmax (+11S)/Vmax of hydrolysis of Dabcyl-KQ10GD-EDANS by the 26S proteasome, proteasome:11S 1:4 [2]: 1.4; Vmax (+11S)/Vmax of hydrolysis of Dabcyl-KQ10PPD-EDANS by the 26S proteasome, proteasome:11S 1:4 [2]: 2
11S: 11S proteasomal regulator (PA28) consisting of α/β subunits, isolated from mouse brain |  |  |  |  |  |  |  |  |  |  |  |  |  |  | Specific peptidase activity using Ac-RLR-AMC ([3]; 26S+11S (1:2, mole:mole), 26S alone 1.92 ± 0.06, means ± SEM of three independent experiments run in duplicate): 2.5 ± 0.2 nM/min/µg; Specific peptidase activity using Z-LLE-AMC ([3]; 26S+11S (1:2, mole:mole), 26S alone 5.4 ± 0.1, means ± SEM of three independent experiments run in duplicate): 6.7 ± 0.5 nM/min/µg; Specific peptidase activity using Suc-LLVY-AMC [4, 7]: 8.8 ± 0.4 nM/min/µg; Specific peptidase activity using Z-LLE-AMC ([4]; 20S+11S (1:2, mole:mole), 20S alone 1.14 ± 0.02, means ± SEM of three independent experiments run in duplicate): 5.2 ± 0.1 nM/min/µg; Specific peptidase activity using Ac-RLR-AMC ([4]; 20S+11S (1:2, mole:mole), 20S alone 2.78 ± 0.07, means ± SEM of three independent experiments run in duplicate): 8.4 ± 0.2 nM/min/µg
CCCCCCCCCCCCOS(=O)(=O)[O-].[Na+] [SDS] |  |  |  |  |  |  |  |  |  |  |  |  |  |  | Effect on the 26S proteasome activity ([3]; in the presence of 0.02% SDS): completely inhibited; Specific peptidase activity using Suc-LLVY-AMC [4, 7]: 34 ± 6 nM/min/µg; Increase of the activity of the 20S proteasome ([4]; in the presence of 0.02% SDS): 13–15 times
Dabcyl-KQ5GD-EDANS [internally quenched fluorogenic FRET substrate with five glutamine residues, EDANS-Dabcyl pair] | 52 ± 10 µM | 2.1 ± 0.3 10^−2 μM·min^−1 | 1.0 | 54 ± 10 µM | 2.0 ± 0.3 10^−2 μM·min^−1 | 52 ± 8 µM | 2.3 ± 0.3 10^−2 μM·min^−1 | 60 ± 8 µM | 6.1 ± 1.4 10^−2 μM·min^−1 | 2.7 |  |  |  |  | Products of proteasomal hydrolysis identified (20S proteasome [5]): Dabcyl-KQ2 and QGD-EDANS; Peak of the starting substrate after incubation with 20S proteasome (20S proteasome [5]): disappeared
Dabcyl-KQ10GD-EDANS [internally quenched fluorogenic FRET substrate with ten glutamine residues, EDANS-Dabcyl pair] | 38 ± 9 µM | 0.12 ± 0.03 10^−2 μM·min^−1 | 1.4 | 18 ± 2 µM | 0.09 ± 0.01 10^−2 μM·min^−1 | 40 ± 3 µM | 0.61 ± 0.02 10^−2 μM·min^−1 | 64 ± 14 µM | 0.92 ± 0.15 10^−2 μM·min^−1 | 1.5 |  |  |  |  | 
Dabcyl-KQ10PPD-EDANS | 20 ± 4.6 µM | 4.73 ± 0.35 10^−2 μM·min^−1 | 2.0 | 24.5 ± 10 µM | 2.3 ± 0.2 10^−2 μM·min^−1 | 8.2 ± 1.5 µM | 0.73 ± 0.03 10^−2 μM·min^−1 | 5.3 ± 1.3 µM | 1.66 ± 0.07 10^−2 μM·min^−1 | 2.3 |  |  |  |  | Products of proteasomal hydrolysis identified (20S proteasome [5]): Dabcyl-KQ2 and Q7PPD-EDANS; Peak of the starting substrate after incubation with 20S proteasome (20S proteasome [5]): disappeared
{Dabcyl′}-KQQQQQGD-{EDANS} (SMILES CN(C)c1ccc(/N=N/c2ccc(C(=O)N[C@@H](CCCCN)C(=O)N[C@@H](CCC(N)=O)C(=O)N[C@@H](CCC(N)=O)C(=O)N[C@@H](CCC(N)=O)C(=O)N[C@@H](CCC(N)=O)C(=O)N[C@@H](CCC(N)=O)C(=O)NCC(=O)N[C@@H](CC(=O)O)C(=O)NCCNc3cccc4c(S(=O)(=O)O)cccc34)cc2)cc1) [Dabcyl-KQ5GD-EDANS] |  |  |  |  |  |  |  |  |  |  | 60 µM | 52 µM | 52 µM | 54 µM | 
{Dabcyl′}-KQQQQQQQQQQGD-{EDANS} (SMILES CN(C)c1ccc(/N=N/c2ccc(C(=O)N[C@@H](CCCCN)C(=O)N[C@@H](CCC(N)=O)C(=O)N[C@@H](CCC(N)=O)C(=O)N[C@@H](CCC(N)=O)C(=O)N[C@@H](CCC(N)=O)C(=O)N[C@@H](CCC(N)=O)C(=O)N[C@@H](CCC(N)=O)C(=O)N[C@@H](CCC(N)=O)C(=O)N[C@@H](CCC(N)=O)C(=O)N[C@@H](CCC(N)=O)C(=O)N[C@@H](CCC(N)=O)C(=O)NCC(=O)N[C@@H](CC(=O)O)C(=O)NCCNc3cccc4c(S(=O)(=O)O)cccc34)cc2)cc1) [Dabcyl-KQ10GD-EDANS] |  |  |  |  |  |  |  |  |  |  | 64 µM | 40 µM | 38 µM | 18 µM | 
{Dabcyl′}-KQQQQQQQQQQPPD-{EDANS} (SMILES CN(C)c1ccc(/N=N/c2ccc(C(=O)N[C@@H](CCCCN)C(=O)N[C@@H](CCC(N)=O)C(=O)N[C@@H](CCC(N)=O)C(=O)N[C@@H](CCC(N)=O)C(=O)N[C@@H](CCC(N)=O)C(=O)N[C@@H](CCC(N)=O)C(=O)N[C@@H](CCC(N)=O)C(=O)N[C@@H](CCC(N)=O)C(=O)N[C@@H](CCC(N)=O)C(=O)N[C@@H](CCC(N)=O)C(=O)N[C@@H](CCC(N)=O)C(=O)N3CCC[C@H]3C(=O)N3CCC[C@H]3C(=O)N[C@@H](CC(=O)O)C(=O)NCCNc3cccc4c(S(=O)(=O)O)cccc34)cc2)cc1) [Dabcyl-KQ10PPD-EDANS] |  |  |  |  |  |  |  |  |  |  | 5.3 µM | 8.2 µM | 20 µM | 24.5 µM | 
